Source: patent publication US5935944A, “Formulation for I.V. administration of the boron delivery drug, boronophenylalanine (BPA)” (Neutron Technology Corporation, priority 1996, dated 1999)
Values after ≈ are worked out from the molar mass of the structure shown.

Columns and labels:
[1] = pH 7.4; background statement; cited from earlier work
cancer cells = conditions: apparently by amino acid transport system uptake; cited from earlier work

Experimental for physchem: For solubility determinations, an excess of BPA was always used. All formulations were sonicated (ultrasonic wave treatment), adjusted to a final pH of 7.4, and filtered through a 0.22 micron filter. The BPA concentration of filtered solutions was calculated from B levels which were measured by inductively coupled plasma atomic emission spectrometry. […] Unless otherwise specified, BPA and B levels are reported as mean±standard error of the mean (SEM) of three experiments.

solubility (physchem; buffer, pH 7.4, aqueous buffer): 2200 ± 400 µg/mL (≈ 10.5 mM)
solubility (physchem; water, pH 7.4, water): 1150 to 3700 µg/mL (≈ 5.5 to 17.7 mM)
Compound: NC(Cc1ccc(B(O)O)cc1)C(=O)O (stereo not shown) [BPA, P-boronophenylalanine]
water solubility at physiological pH [1]: < 4 ppm
selective accumulation in cancer cells (cancer cells): does seem to selectively accumulate in cancer cells
